Source: patent US11730712B2, “Functionalized long-chain hydrocarbon mono- and di-carboxylic acids and derivatives thereof, and their use for the prevention or treatment of disease” (ESPERVITA THERAPEUTICS, INC., priority 2021, dated 2023)

Test system: liver fibrosis gene panel (770 genes)
Assay: Nanostring nCounter Fibrosis panel gene expression in liver of DEN-injected mice
Format: in vivo, mouse
Conditions: vs vehicle
Protocol: Nanostring Analysis. RNA was extracted from paired liver and tumor tissue from vehicle, Compound I-1 (100 mg/kg) and Compound I-32 (100 mg/kg) treated mice using an RNeasy kit (Qiagen, Calif., USA) as per manufacturer's protocol. All RNA samples passed the BioAnalyzer quality control test. The expression of target genes in liver and tumor were analyzed using the nCounter Fibrosis and Cancer Panel (NanoString Technologies, Inc., WA, USA), respectively according to manufacturer's protocol at the McMaster Genomics Facility. Technical and biological normalization against global geometric mean was performed in nSolver 4.0 software (NanoString Technologies). Technical normalization was performed in the nSolver software (version 4.0.70) by normalizing sample target raw counts to the geometric mean of positive control spike-ins. Biological normalization was performed by normalizing sample target raw counts to the geometric mean of selected housekeeping genes (Ppia, Nubp1, Nol7, Armh3, Rplp0, Cnot10, Pgk1, and Acad9). Pathway scores were calculated as the first principal component of the normalized expression values for all genes in each pathway and samples were compiled according to experimental groups to determine average pathway scores. Statistical significance was calculated between experimental groups using multiple t-tests and p-values were corrected for multiple comparisons using Benjamin-Hochberg false discovery rate.
Molecular analysis. To identify the pathways modulated in the liver and tumor tissue, nanostring analysis of fibrosis and cancer, pathways, respectively were completed in an n=8 mice treated with vehicle or Compound I-32 or Compound I-1 at 100 mg/kg.

CC(C)(CCCCc1cccc(CCCCC(C)(C)C(=O)O)c1)C(=O)O [Compound I-32, 6-[3-(5-carboxy-5-methylhexyl)-phenyl]-2,2-dimethylhexanoic acid]
Cpt1a Log2FC (NM_013495, 100 mg/kg): −0.363 | Creb3 Log2FC (NM_013497, 100 mg/kg): −0.409 | P3h3 Log2FC (NM_013534, 100 mg/kg): −0.96 | Rora Log2FC (NM_013646, 100 mg/kg): 0.258 | Slc25a10 Log2FC (NM_013770, 100 mg/kg): 0.324 | H2-M3 Log2FC (NM_013819, 100 mg/kg): −0.633 | Xbp1 Log2FC (NM_013842, 100 mg/kg): −0.29 | Col5a1 Log2FC (NM_015734, 100 mg/kg): −0.601 | Ero1l Log2FC (NM_015774, 100 mg/kg): 0.269 | Cfhr1 Log2FC (NM_015780, 100 mg/kg): −0.283 | Isg15 Log2FC (NM_015783, 100 mg/kg): −0.673 | C6 Log2FC (NM_016704, 100 mg/kg): −1.04 | Irf3 Log2FC (NM_016849, 100 mg/kg): −0.206 | Actr1a Log2FC (NM_016860, 100 mg/kg): −0.192 | Ywhag Log2FC (NM_018871, 100 mg/kg): 0.265 | Fbp1 Log2FC (NM_019395, 100 mg/kg): −0.981 | Ppp2ca Log2FC (NM_019411, 100 mg/kg): −0.123 | Atf7ip Log2FC (NM_019426, 100 mg/kg): −0.289 | Ndufa1 Log2FC (NM_019443, 100 mg/kg): 0.156 | Htra2 Log2FC (NM_019752, 100 mg/kg): −0.286 | Cpb2 Log2FC (NM_019775, 100 mg/kg): −0.467 | Uba52 Log2FC (NM_019883, 100 mg/kg): 0.433 | Ube2d2a Log2FC (NM_019912, 100 mg/kg): −0.231 | Aldh9a1 Log2FC (NM_019993, 100 mg/kg): 0.467 | Angptl4 Log2FC (NM_020581, 100 mg/kg): 0.413 | Isg20 Log2FC (NM_020583, 100 mg/kg): −0.491 | Abcb11 Log2FC (NM_021022, 100 mg/kg): −0.503 | Rps6kb2 Log2FC (NM_021485, 100 mg/kg): −0.398 | Cxcl12 Log2FC (NM_021704, 100 mg/kg): −0.535 | Apoc3 Log2FC (NM_023114, 100 mg/kg): −0.391 | Cxcl16 Log2FC (NM_023158, 100 mg/kg): −0.445 | Ern1 Log2FC (NM_023913, 100 mg/kg): −0.451 | Sec61b Log2FC (NM_024171, 100 mg/kg): −0.37 | Hsbp1 Log2FC (NM_024219, 100 mg/kg): −0.155 | Cyp27a1 Log2FC (NM_024264, 100 mg/kg): −0.71 | Fabp4 Log2FC (NM_024406, 100 mg/kg): 0.887 | Ndufb5 Log2FC (NM_025316, 100 mg/kg): 0.36 | Ssr2 Log2FC (NM_025448, 100 mg/kg): −0.208 | Psenen Log2FC (NM_025498, 100 mg/kg): −0.154 | Ndufc1 Log2FC (NM_025523, 100 mg/kg): 0.363 | Cox6b1 Log2FC (NM_025628, 100 mg/kg): 0.405 | Uqcrh Log2FC (NM_025641, 100 mg/kg): 0.28 | Uqcrfs1 Log2FC (NM_025710, 100 mg/kg): 0.188 | Map1lc3a Log2FC (NM_025735, 100 mg/kg): 0.744 | Ndufb8 Log2FC (NM_026061, 100 mg/kg): 0.279 | Erp29 Log2FC (NM_026129, 100 mg/kg): −0.277 | Uqcrb Log2FC (NM_026219, 100 mg/kg): 0.377 | Sugt1 Log2FC (NM_026474, 100 mg/kg): 0.15 | Atg101 Log2FC (NM_026566, 100 mg/kg): −0.483 | Ndufs3 Log2FC (NM_026688, 100 mg/kg): 0.148 | Ifi35 Log2FC (NM_027320, 100 mg/kg): −0.447 | Pgm2 Log2FC (NM_028132, 100 mg/kg): 0.339 | Phykpl Log2FC (NM_028398, 100 mg/kg): −0.288 | Pik3cb Log2FC (NM_029094, 100 mg/kg): −0.412 | Hcar2 Log2FC (NM_030701, 100 mg/kg): 1.41 | Cpn1 Log2FC (NM_030703, 100 mg/kg): 0.351 | Slc2a2 Log2FC (NM_031197, 100 mg/kg): −0.47 | Lamtor2 Log2FC (NM_031248, 100 mg/kg): 0.189 | Dock2 Log2FC (NM_033374, 100 mg/kg): −0.474 | Ube2n Log2FC (NM_080560, 100 mg/kg): −0.194 | Elovl6 Log2FC (NM_130450, 100 mg/kg): 1.22 | Acaca Log2FC (NM_133360, 100 mg/kg): 0.893 | Fgg Log2FC (NM_133862, 100 mg/kg): −0.387 | Acacb Log2FC (NM_133904, 100 mg/kg): 0.681 | Il1rap Log2FC (NM_134103, 100 mg/kg): −0.868 | Ptpa Log2FC (NM_138748, 100 mg/kg): 0.222 | Mylk Log2FC (NM_139300, 100 mg/kg): −0.532 | Fegr4 Log2FC (NM_144559, 100 mg/kg): −0.638 | Aldob Log2FC (NM_144903, 100 mg/kg): −0.6 | C1s1 Log2FC (NM_144938, 100 mg/kg): −0.755 | Txndc5 Log2FC (NM_145367, 100 mg/kg): −0.321 | Ldlrap1 Log2FC (NM_145554, 100 mg/kg): −0.189 | Jak1 Log2FC (NM_146145, 100 mg/kg): −0.166 | C8a Log2FC (NM_146148, 100 mg/kg): −1.37 | Pkhdi Log2FC (NM_153179, 100 mg/kg): −1.12 | Nckap1l Log2FC (NM_153505, 100 mg/kg): −0.653 | Mbtps2 Log2FC (NM_172307, 100 mg/kg): 0.306 | Cyp4a12a Log2FC (NM_177406, 100 mg/kg): 1.42 | Acaa2 Log2FC (NM_177470, 100 mg/kg): 0.314 | Jmjd4 Log2FC (NM_178659, 100 mg/kg): −0.516 | Nceh1 Log2FC (NM_178772, 100 mg/kg): 0.444 | Hadha Log2FC (NM_178878, 100 mg/kg): 0.903 | Mfap3 Log2FC (NM_180599, 100 mg/kg): −0.362 | Bst2 Log2FC (NM_198095, 100 mg/kg): 0.494 | Acsl4 Log2FC (NM_207625, 100 mg/kg): 0.737 | Cflar Log2FC (NM_207653, 100 mg/kg): −0.25 | Egfr Log2FC (NM_207655, 100 mg/kg): −0.93 | Stat3 Log2FC (NM_213659, 100 mg/kg): −0.686 | H2-K1 Log2FC (NM_001001892, 100 mg/kg): −0.168 | Kdm2a Log2FC (NM_001001984, 100 mg/kg): −0.255 | Cfhr2 Log2FC (NM_001025575, 100 mg/kg): −0.596 | Ndufs5 Log2FC (NM_001030274, 100 mg/kg): 0.381 | Itga1 Log2FC (NM_001033228, 100 mg/kg): −0.312 | Dock1 Log2FC (NM_001033420, 100 mg/kg): −0.347 | Xaf1 Log2FC (NM_001037713, 100 mg/kg): −0.701 | Banf1 Log2FC (NM_001038231, 100 mg/kg): 0.339 | Smurf Log2FC (NM_001038627, 100 mg/kg): −0.969 | Seh1l Log2FC (NM_001039088, 100 mg/kg): 0.216 | Nrp2 Log2FC (NM_001077403, 100 mg/kg): 0.619 | Ptafr Log2FC (NM_001081211, 100 mg/kg): −0.408 | Brpf3 Log2FC (NM_001081315, 100 mg/kg): 0.3 | Aqp8 Log2FC (NM_001109045, 100 mg/kg): −0.632 | Igf1 Log2FC (NM_001111274, 100 mg/kg): −0.588 | Itga9 Log2FC (NM_001113514, 100 mg/kg): −0.212 | Il1r1 Log2FC (NM_001123382, 100 mg/kg): −1.16 | Aldh7a1 Log2FC (NM_001127338, 100 mg/kg): −0.344 | Rnf152 Log2FC (NM_001160368, 100 mg/kg): −0.687 | Cyfip1 Log2FC (NM_001164661, 100 mg/kg): −0.229 | Slc25a13 Log2FC (NM_001177572, 100 mg/kg): −0.179 | Syk Log2FC (NM_001198977, 100 mg/kg): −0.772 | Cd84 Log2FC (NM_001252472, 100 mg/kg): −0.6 | Apoc2 Log2FC (NM_001277944, 100 mg/kg): −0.94 | Ncf1 Log2FC (NM_001286037, 100 mg/kg): −0.635 | Cd68 Log2FC (NM_001291058, 100 mg/kg): −0.732 | Itga5 Log2FC (NM_001314041, 100 mg/kg): −0.402 | Col6a3 Log2FC (XM_897036, 100 mg/kg): −0.679
